# ChEMBL document CHEMBL4145555, “Synthetic Approaches to New Drugs Approved During 2016” (J Med Chem, 2018)
# Assay: Half life in human plasma at 20 mg/day, po
# Format: ADME, organism-based
compound,measurement,value
Cl.Clc1ccc(CCCOCCCN2CCCCC2)cc1 [PITOLISANT HYDROCHLORIDE],half-life,10 to 12 h
